Assay results reported in PubChem BioAssay (NCI).
Several values for one entry are separate records, joined by “and”; a condition that tells them apart may be missing. Identical values can stand only once.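 The compound was tested at five concentrations on cells cultured in 96-well plates, with a 48-hour exposure period. Here, GI50 denotes the concentration required for 50% inhibition of growth. TGI: total growth inhibition.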

Key:
Experiment in all cases: NCI tumour cell line growth inhibition, 48 h
[1] = test system: TK-10 renal
[2] = test system: SNB-75 CNS
[3] = test system: HOP-62 NSCLC
[4] = test system: OVCAR-4 ovarian
[5] = test system: HOP-92 NSCLC
[6] = test system: PC-3 prostate
[7] = test system: SF-539 CNS
[8] = test system: HCT-116 colon
[9] = test system: A498 renal
[10] = test system: RXF 393 renal

SMILES: CCOC(=O)C1=CSC2=NC3=C(CCC/C3=C\c3cc(OC)c(OC)c(OC)c3)C(c3cc(OC)c(OC)c(OC)c3)N12 (stereo not drawn)
- GI50 [1]: 4.33 µM
- TGI [1]: > 100 µM
- GI50 [2]: 3.74 µM
- TGI [2]: > 100 µM
- GI50 [3]: 1.43 µM
- TGI [3]: > 100 µM
- GI50 [4]: 1.32 µM
- TGI [4]: > 100 µM
- GI50 [5]: 0.818 µM
- TGI [5]: 7.5 µM
- GI50 [6]: 0.751 µM
- TGI [6]: > 100 µM

SMILES: Nc1c(C(=O)Nc2ccccc2O)[n+]([O-])c2ccccc2[n+]1[O-]
- TGI [7]: > 100 µM
- TGI [2]: > 100 µM
- TGI [3]: > 100 µM
- TGI [4]: > 100 µM
- TGI [5]: > 100 µM
- TGI [8]: > 100 µM
- TGI [9]: > 100 µM

SMILES: O=S(=O)(Cc1ccccc1)SCc1ccccc1
- TGI [1]: 99.2 µM
- TGI [7]: 37.8 µM
- TGI [2]: > 100 µM
- TGI [3]: > 100 µM
- TGI [4]: 54 µM
- TGI [5]: 51.2 µM
- TGI [10]: 65.2 µM
- TGI [8]: 35.4 µM
- TGI [9]: 73.6 µM

SMILES: C1CCN2CC3CONC3C2C1 (stereo not drawn)
- TGI [1]: > 100 µM
- TGI [7]: > 100 µM
- TGI [2]: > 100 µM
- TGI [3]: > 100 µM
- TGI [4]: > 100 µM
- TGI [10]: > 100 µM
- TGI [8]: > 100 µM
- TGI [9]: > 100 µM

SMILES: Cn1cc(NC(=O)c2cc(NC(=O)CCCCCCCC(=O)Nc3cc(C(=O)Nc4cc(C(=O)NCCC(=N)N)n(C)c4)n(C)c3)cn2C)cc1C(=O)NCCC(=N)N
- TGI [1]: 36.7 µM
- TGI [7]: 33.1 µM
- TGI [2]: 70.8 µM
- TGI [3]: > 100 µM
- TGI [4]: > 100 µM
- TGI [5]: > 100 µM
- TGI [10]: 41.3 µM
- TGI [8]: 42.3 µM
- TGI [9]: 56.7 µM

SMILES: Cc1c(C)c2ccc(OC(C)C(=O)O)cc2oc1=O (stereo not drawn)
- TGI [1]: > 100 µM
- TGI [7]: > 100 µM
- TGI [2]: > 100 µM
- TGI [3]: > 100 µM
- TGI [4]: > 100 µM
- TGI [5]: > 100 µM
- TGI [10]: > 100 µM
- TGI [8]: > 100 µM
- TGI [9]: > 100 µM

SMILES: Nc1ccn([C@@H]2S[C@H](CO)[C@@H](O)[C@@H]2F)c(=O)n1
- GI50 [1]: > 100 µM
- TGI [1]: > 100 µM
- GI50 [7]: 0.317 µM
- GI50 [2]: 2.73 µM
- TGI [2]: > 100 µM
- GI50 [3]: 0.0526 µM
- TGI [3]: > 74.3 µM
- GI50 [4]: > 100 µM
- TGI [4]: > 100 µM
- GI50 [5]: 0.278 µM
- TGI [5]: > 100 µM
- GI50 [10]: 0.289 µM
- TGI [10]: > 22.4 µM
- GI50 [8]: 0.0393 µM
- TGI [8]: > 100 µM
- GI50 [9]: 0.0709 µM

SMILES: NNC(=O)N/N=C1\CNC(=O)C(=O)C1c1nc2ccccc2s1 (stereo not drawn)
- TGI [1]: > 100 µM
- TGI [7]: > 100 µM
- TGI [2]: > 100 µM
- TGI [3]: > 100 µM
- TGI [4]: > 100 µM
- TGI [5]: > 100 µM
- TGI [10]: > 100 µM
- TGI [8]: > 100 µM
- TGI [9]: > 100 µM

SMILES: Nc1c(-c2nc3ccccc3s2)[n+]([O-])c2ccccc2[n+]1[O-]
- TGI [1]: > 100 µM
- TGI [7]: 78.8 µM
- TGI [2]: 76.5 µM
- TGI [3]: 78.5 µM
- TGI [4]: > 100 µM
- TGI [5]: 62.3 µM
- TGI [8]: 63.9 µM
- TGI [9]: > 100 µM

SMILES: CC1(C)CC(O)CC(C)(C)N1.CC1(C)CC(O)CC(C)(C)N1.CC1(C)CC(O)CC(C)(C)N1.CC1(C)CC(O)CC(C)(C)N1.Cl.[Ti]
- GI50 [1]: > 100 µM
- TGI [1]: > 100 µM
- GI50 [7]: > 100 µM
- TGI [7]: > 100 µM
- GI50 [2]: > 100 µM
- TGI [2]: > 100 µM
- GI50 [3]: > 100 µM
- TGI [3]: > 100 µM
- GI50 [4]: > 100 µM
- TGI [4]: > 100 µM
- GI50 [5]: > 100 µM
- TGI [5]: > 100 µM
- GI50 [10]: > 100 µM
- TGI [10]: > 100 µM
- GI50 [8]: > 100 µM
- TGI [8]: > 100 µM
- GI50 [9]: > 100 µM
- TGI [9]: > 100 µM

SMILES: O=C(Nc1cccc(-n2cc(-c3ccncc3)c(-c3ccc(O)c(Cl)c3)n2)c1)Nc1ccc(Cl)c(Cl)c1
- GI50 [1]: 2.83 µM
- TGI [1]: 7.56 µM
- GI50 [7]: 1.57 µM
- TGI [7]: 4.87 µM
- GI50 [4]: 2.4 µM
- TGI [4]: 9.5 µM
- GI50 [5]: 0.763 µM
- TGI [5]: 3.38 µM
- GI50 [6]: 2.07 µM
- TGI [6]: 7.45 µM
- GI50 [8]: 1.83 µM
- TGI [8]: 5.33 µM
- GI50 [9]: 1.95 µM
- TGI [9]: 7.01 µM

SMILES: Nc1ncnc2sc(Nc3ccccc3)nc12
- TGI [1]: > 100 µM
- TGI [7]: > 100 µM
- TGI [2]: > 100 µM
- TGI [3]: > 100 µM
- TGI [4]: > 100 µM
- TGI [5]: > 100 µM

SMILES: COc1cc2c3c(n(CCCN4CCSCC4)c(=O)c2cc1OC)-c1cc2c(cc1C3=O)OCO2
- GI50 [1]: 27.2 µM
- TGI [1]: 82.9 µM
- GI50 [7]: 18.2 µM
- TGI [7]: 34.5 µM
- GI50 [2]: 12.9 µM
- TGI [2]: 27.5 µM
- GI50 [3]: 26.2 µM
- TGI [3]: 73.7 µM
- GI50 [4]: > 100 µM
- TGI [4]: > 100 µM
- GI50 [5]: 19.4 µM
- TGI [5]: 46.3 µM
- GI50 [10]: 27.3 µM
- TGI [10]: 67.8 µM
- GI50 [6]: 42.8 µM
- TGI [6]: > 100 µM
- GI50 [8]: 73.1 µM
- TGI [8]: > 100 µM

SMILES: NC(=O)C(=O)Cc1nc2ccccc2s1
- TGI [1]: > 100 µM
- TGI [7]: > 100 µM
- TGI [2]: > 100 µM
- TGI [3]: > 100 µM
- TGI [4]: > 100 µM
- TGI [5]: > 100 µM
- TGI [10]: > 100 µM
- TGI [8]: > 100 µM
- TGI [9]: > 100 µM

SMILES: CCOc1ccc(/C=C2/C(=O)N=C(N)N=C2N)cc1OCC
- TGI [1]: > 100 µM
- TGI [2]: > 100 µM
- TGI [4]: > 100 µM
- TGI [5]: > 100 µM
- TGI [10]: > 100 µM
- TGI [8]: > 100 µM

SMILES: CC(=O)c1c(O)c2c([nH]c1=O)CCCC2
- TGI [1]: > 100 µM
- TGI [2]: 29 µM
- TGI [3]: 46.5 µM
- TGI [4]: > 100 µM
- TGI [5]: > 100 µM
- TGI [10]: 67.6 µM

SMILES: CCN(CC)CCCNc1c2ccc(Cl)cc2nc2ccc(OC)cc12
- GI50 [1]: 1.69 µM
- TGI [1]: 4.83 µM
- GI50 [4]: 0.0304 µM
- TGI [4]: 2.77 µM
- GI50 [5]: 1.41 µM
- TGI [5]: 3.62 µM
- GI50 [10]: 0.0403 µM
- TGI [10]: 2.15 µM
- GI50 [8]: 0.0307 µM
- TGI [8]: 1.64 µM
- GI50 [9]: 1.51 µM
- TGI [9]: 2.86 µM

SMILES: O=C1c2ccccc2-c2c1c1ccc([N+](=O)[O-])cc1c(=O)n2CCCCl
- GI50 [1]: 37.8 µM
- TGI [1]: > 100 µM
- GI50 [3]: 43.8 µM
- TGI [3]: > 100 µM
- GI50 [5]: 22.9 µM
- TGI [5]: > 100 µM
- GI50 [10]: > 100 µM
- TGI [10]: > 100 µM
- GI50 [6]: 15.2 µM
- TGI [6]: > 100 µM
- GI50 [8]: 3.62 µM
- TGI [8]: > 100 µM

SMILES: Oc1c(I)cc(Cl)c2cccnc12
- GI50 [1]: 31.3 µM and 24 µM
- TGI [1]: > 100 µM and 73.8 µM
- GI50 [7]: 3.31 µM and 24.3 µM
- TGI [7]: 13.7 µM and 52.6 µM
- GI50 [2]: 4.42 µM
- TGI [2]: > 100 µM
- GI50 [3]: 4.02 µM and 4.07 µM
- TGI [3]: 28.5 µM and 20.1 µM
- GI50 [4]: 2.82 µM and 4.39 µM
- TGI [4]: 13.8 µM and > 100 µM
- TGI [5]: 17.9 µM and 50.3 µM
- GI50 [10]: 2.27 µM and 16.8 µM
- GI50 [6]: 4.37 µM and 4.87 µM
- TGI [6]: 57.5 µM and 81.6 µM
- GI50 [8]: 3.31 µM and 2.67 µM
- TGI [8]: 11.1 µM and 9.05 µM

SMILES: O=c1[nH]c(=O)n(C2CC(O)C(O)C(CO)O2)cc1F (stereo not drawn)
- TGI [1]: > 100 µM
- TGI [7]: > 100 µM
- TGI [2]: > 100 µM
- TGI [3]: > 100 µM
- TGI [4]: > 100 µM
- TGI [5]: > 100 µM
- TGI [10]: > 100 µM
- TGI [8]: > 100 µM
- TGI [9]: > 100 µM
